Assay results as given in EPA's ToxRefDB 2.

How the values were obtained:
dog [1] = settings: Chronic toxicity; beagle; Oral; Feed; dose end: 52 week; group: systemic; systemic / in life observation / body weight / body weight gain + systemic / organ weight / heart / absolute + systemic / organ weight / …
rat [2] = settings: Combined chronic toxicity/carcinogenicity, sprague dawley, Oral, Feed, dose end: 104 week, group: systemic
rat [3] = settings: Multigenerational reproductive toxicity study, sprague dawley, Oral, Feed, dose end: 2 generation
mouse [4] = settings: Carcinogenicity; cd1; Oral; Feed; dose end: 18 month; group: systemic; systemic / hematology / erythrocyte (rbc) count differential / erythrocyte (rbc) + systemic / hematology / heinz body / heinz body + …
rat [5] = settings: Subchronic oral toxicity in rodents, sprague dawley, Feed, dose end: 90 day, group: systemic, systemic / hematology / erythrocyte (rbc) count differential / erythrocyte (rbc) + systemic / hematology / hematocrit (hct) / hematocrit (…
dog [6] = settings: Chronic toxicity, beagle, Oral, Capsule, dose end: 52 week, group: systemic
rat [7] = settings: Subchronic oral toxicity in rodents, sprague dawley, Feed, dose end: 90 day, group: systemic
rat [8] = settings: Combined chronic toxicity/carcinogenicity, other, Oral, Feed, dose end: 104 week, group: systemic
mouse [9] = settings: Subchronic oral toxicity in rodents, cd1, Feed, dose end: 90 day, group: systemic
dog [10] = settings: Subchronic oral toxicity in nonrodent, beagle, Feed, dose end: 13 week
rat [11] = settings: Combined chronic toxicity/carcinogenicity, sprague dawley, Oral, Feed, dose end: 24 month
rat [12] = settings: Multigenerational reproductive toxicity study, other, Oral, Feed, dose end: 2 generation
rat [13] = settings: Subchronic oral toxicity in rodents, sprague dawley, Feed, dose end: 13 week
mouse [14] = settings: Subchronic oral toxicity in rodents, cd1, Feed, dose end: 90 day, group: cholinesterase
dog [15] = settings: Chronic toxicity, beagle, Oral, Feed, dose end: 52 week, group: cholinesterase
rabbit = settings: Prenatal developmental toxicity study, new zealand white, Oral, Gavage/Intubation, dose end: 19 GD
mouse [16] = settings: Carcinogenicity, cd1, Oral, Feed, dose end: 78 week
[17] = systemic / in life observation / body weight / body weight + systemic / clinical chemistry / phosphorus / phosphate + systemic / clinical …
[18] = group: offspring, systemic / organ weight / spleen / absolute + systemic / organ weight / spleen / relative to body weight
[19] = group: offspring, systemic / organ weight / spleen / absolute + systemic / organ weight / spleen / relative to body weight + systemic / organ weight / liver…
[20] = group: parental, systemic / organ weight / spleen / absolute + systemic / organ weight / spleen / relative to body weight
[21] = group: parental, systemic / organ weight / spleen / relative to body weight + systemic / organ weight / spleen / absolute
[22] = group: reproductive, reproductive / offspring survival early / litter size / litter size
[23] = systemic / hematology / jolly bodies / jolly bodies + systemic / hematology / mean corpuscular hemoglobin concentration (mchc) / mean …
[24] = systemic / hematology / mean corpuscular hemoglobin concentration (mchc) / mean corpuscular hemoglobin concentration (mchc)
[25] = systemic / hematology / erythrocyte (rbc) count differential / erythrocyte (rbc) + systemic / hematology / hemoglobin (hgb) / hemoglobin (…
[26] = systemic / hematology / methemoglobin / methemoglobin + systemic / hematology / reticulocyte / reticulocyte + systemic / pathology …
[27] = systemic / organ weight / spleen / absolute + systemic / urinalysis / volume / volume
[28] = systemic / organ weight / spleen / absolute + systemic / organ weight / spleen / relative to body weight + systemic / hematology / …
[29] = group: cholinesterase, cholinesterase / cholinesterase / cholinesterase / plasma cholinesterase (che)
[30] = group: systemic, systemic / clinical chemistry / protein / protein + systemic / in life observation / clinical signs / emaciation + systemic / in life …
[31] = group: cholinesterase, cholinesterase / cholinesterase / cholinesterase / erythrocyte cholinesterase (che) + cholinesterase / cholinesterase / cholinesterase / …
[32] = group: systemic, systemic / in life observation / body weight / body weight + systemic / in life observation / body weight / body weight gain + systemic / in…
[33] = group: offspring, systemic / in life observation / body weight / offspring (pup) weight
[34] = group: parental, systemic / in life observation / body weight / body weight + systemic / in life observation / clinical signs / abnormal feces + systemic / …
[35] = group: cholinesterase, cholinesterase / cholinesterase / cholinesterase / plasma cholinesterase (che) + cholinesterase / cholinesterase / cholinesterase / brain …
[36] = group: systemic, systemic / in life observation / body weight / body weight + systemic / in life observation / food consumption / food consumption + systemic…
[37] = cholinesterase / cholinesterase / cholinesterase / plasma cholinesterase (che) + cholinesterase / cholinesterase / cholinesterase / brain …
[38] = cholinesterase / cholinesterase / cholinesterase / brain cholinesterase (che)
[39] = cholinesterase / cholinesterase / cholinesterase / brain cholinesterase (che) + cholinesterase / cholinesterase / cholinesterase / …
[40] = group: developmental, systemic / in life observation / body weight / fetal weight
[41] = group: maternal, systemic / in life observation / body weight / body weight gain + systemic / in life observation / clinical signs / defecation + systemic / …
[42] = group: systemic, systemic / in life observation / body weight / body weight gain + systemic / in life observation / clinical signs / pneumonia + systemic / …

O=C1CC=C([O-])N=N1.[K+] [Maleic hydrazide, potassium salt]
LEL (dog [1]): 87 mg/kg/day | LOAEL (dog [1]): 87 mg/kg/day | NEL (dog [1]): 25 mg/kg/day | NOAEL (dog [1]): 25 mg/kg/day | LOAEL (rat [2]; systemic / in life observation / body weight / body weight): 500 mg/kg/day | LEL (rat [2]; [17]): 500 mg/kg/day | NOAEL (rat [2]; [17]): 25 mg/kg/day | NEL (rat [2]; systemic / organ weight / kidney / absolute + systemic / organ weight / liver / absolute + systemic / in life observation / body weight / …): 25 mg/kg/day

O=C(NC(=O)c1c(F)cccc1F)Nc1ccc(OC(F)(F)C(F)OC(F)(F)F)c(Cl)c1 (centres undefined) [Novaluron]
LOAEL (rat [3]; [18]): 74.2 mg/kg/day | NOAEL (rat [3]; [18]): < 74.2 mg/kg/day | LEL (rat [3]; [19]): 74.2 mg/kg/day | NEL (rat [3]; [19]): < 74.2 mg/kg/day | LOAEL (rat [3]; [20]): 74.2 mg/kg/day | NOAEL (rat [3]; [20]): < 74.2 mg/kg/day | LEL (rat [3]; [21]): 74.2 mg/kg/day | NEL (rat [3]; [21]): < 74.2 mg/kg/day | LEL (rat [3]; [22]): 895 mg/kg/day | LOAEL (rat [3]; [22]): > 895 mg/kg/day | NEL (rat [3]; [22]): 298 mg/kg/day | NOAEL (rat [3]; [22]): ≥ 895 mg/kg/day | LEL (mouse [4]): 53.4 mg/kg/day | LOAEL (mouse [4]): 53.4 mg/kg/day | NEL (mouse [4]): 3.6 mg/kg/day | NOAEL (mouse [4]): 3.6 mg/kg/day | LEL (rat [5]): 8.64 mg/kg/day | LOAEL (rat [5]): 8.64 mg/kg/day | NEL (rat [5]): 4.38 mg/kg/day | NOAEL (rat [5]): 4.38 mg/kg/day | LOAEL (dog [6]; [23]): 100 mg/kg/day | NOAEL (dog [6]; [23]): 10 mg/kg/day | LEL (dog [6]; [24]): 10 mg/kg/day | NEL (dog [6]; [24]): < 10 mg/kg/day | LEL (rat [7]; [25]): 4.7 mg/kg/day | NEL (rat [7]; [25]): < 4.7 mg/kg/day | LOAEL (rat [7]; [26]): 818 mg/kg/day | NOAEL (rat [7]; [26]): 8.3 mg/kg/day | LOAEL (rat [8]; systemic / in life observation / clinical signs / anemia): 30.6 mg/kg/day | NOAEL (rat [8]; systemic / in life observation / clinical signs / anemia + systemic / hematology / erythrocyte (rbc) count differential / erythrocyte (rbc…): 1.1 mg/kg/day | LEL (rat [8]; [27]): 1.4 mg/kg/day | NEL (rat [8]; [27]): < 1.4 mg/kg/day | LEL (mouse [9]; systemic / hematology / erythrocyte (rbc) count differential / erythrocyte (rbc) + systemic / hematology / hematocrit (hct) / hematocrit (…): 15.2 mg/kg/day | LOAEL (mouse [9]; systemic / organ weight / spleen / absolute + systemic / organ weight / spleen / relative to body weight): 136 mg/kg/day | NEL (mouse [9]; [28]): 4.7 mg/kg/day | NOAEL (mouse [9]; [28]): 15.2 mg/kg/day

CCOC(=O)CSc1nc(C(C)(C)C)nn1C(=O)N(C)C [Triazamate]
LEL (dog [10]; [29]): 0.03 mg/kg/day | LOAEL (dog [10]; [29]): 0.03 mg/kg/day | NEL (dog [10]; [29]): < 0.03 mg/kg/day | NOAEL (dog [10]; [29]): < 0.03 mg/kg/day | LOAEL (dog [10]; [30]): 3.11 mg/kg/day | NOAEL (dog [10]; [30]): 0.31 mg/kg/day | NEL (dog [10]; group: systemic, systemic / in life observation / clinical signs / distended abdomens + systemic / in life observation / clinical signs / vomitting + …): 0.03 mg/kg/day | LEL (dog [10]; group: systemic, systemic / in life observation / clinical signs / vomitting): 0.31 mg/kg/day | LEL (rat [11]; [31]): 11.5 mg/kg/day | LOAEL (rat [11]; [31]): 11.5 mg/kg/day | NEL (rat [11]; [31]): 0.45 mg/kg/day | NOAEL (rat [11]; [31]): 0.45 mg/kg/day | LEL (rat [11]; [32]): 59.2 mg/kg/day | LOAEL (rat [11]; [32]): > 59.2 mg/kg/day | NEL (rat [11]; [32]): 11.5 mg/kg/day | NOAEL (rat [11]; [32]): ≥ 59.2 mg/kg/day | LEL (rat [12]; [31]): 17 mg/kg/day | LOAEL (rat [12]; [31]): 17 mg/kg/day | NEL (rat [12]; [31]): 0.7 mg/kg/day | NOAEL (rat [12]; [31]): 0.7 mg/kg/day | LEL (rat [12]; [33]): 101 mg/kg/day | LOAEL (rat [12]; [33]): 101 mg/kg/day | NEL (rat [12]; [33]): 17 mg/kg/day | NOAEL (rat [12]; [33]): 17 mg/kg/day | LEL (rat [12]; [34]): 101 mg/kg/day | LOAEL (rat [12]; [34]): > 101 mg/kg/day | NEL (rat [12]; [34]): 17 mg/kg/day | NOAEL (rat [12]; [34]): ≥ 101 mg/kg/day | LEL (rat [13]; [29]): 31 mg/kg/day | LOAEL (rat [13]; [29]): 31 mg/kg/day | NEL (rat [13]; [35]): 3 mg/kg/day | NOAEL (rat [13]; [35]): 3 mg/kg/day | LOAEL (rat [13]; group: systemic, systemic / in life observation / body weight / body weight + systemic / in life observation / food consumption / food consumption): 93 mg/kg/day | LEL (rat [13]; [36]): 93 mg/kg/day | NEL (rat [13]; [36]): 31 mg/kg/day | NOAEL (rat [13]; [36]): 31 mg/kg/day | LOAEL (mouse [14]; cholinesterase / cholinesterase / cholinesterase / plasma cholinesterase (che)): 4.55 mg/kg/day | NEL (mouse [14]; [37]): 0.336 mg/kg/day | NOAEL (mouse [14]; [37]): 0.336 mg/kg/day | LEL (mouse [14]; cholinesterase / cholinesterase / cholinesterase / plasma cholinesterase (che) + cholinesterase / cholinesterase / cholinesterase / …): 4.55 mg/kg/day | LEL (dog [15]; [38]): 0.0232 mg/kg/day | LOAEL (dog [15]; [38]): 0.0232 mg/kg/day | NEL (dog [15]; [39]): 0.0172 mg/kg/day | NOAEL (dog [15]; [39]): 0.0172 mg/kg/day | LEL (rabbit; [40]): 0.5 mg/kg/day | LOAEL (rabbit; [40]): > 10 mg/kg/day | NEL (rabbit; [40]): 0.05 mg/kg/day | NOAEL (rabbit; [40]): ≥ 10 mg/kg/day | LEL (rabbit; [41]): 0.5 mg/kg/day | LOAEL (rabbit; [41]): 0.5 mg/kg/day | NEL (rabbit; [41]): 0.05 mg/kg/day | NOAEL (rabbit; [41]): 0.05 mg/kg/day | LEL (mouse [16]; [29]): 6.7 mg/kg/day | LOAEL (mouse [16]; [29]): 6.7 mg/kg/day | NEL (mouse [16]; [35]): 0.13 mg/kg/day | NOAEL (mouse [16]; [35]): 0.13 mg/kg/day | LOAEL (mouse [16]; group: systemic, systemic / in life observation / body weight / body weight gain + systemic / in life observation / clinical signs / pneumonia): 210 mg/kg/day | LEL (mouse [16]; [42]): 210 mg/kg/day | NEL (mouse [16]; [42]): 6.7 mg/kg/day | NOAEL (mouse [16]; [42]): 6.7 mg/kg/day
